Results taken from patent US20230192686A1, “1H-PYRROLO[2,3-B]PYRIDINES AND PREPARATION AND USES THEREOF” (BioSplice Therapeutics, Inc., priority 2021, published 2023).

Tests used:
[1] = target: recombinant DYRK1A kinase (Homo sapiens, UniProt Q13627); assay: DYRK1A kinase assay (Ser/Thr 18 peptide Z-lyte FRET); format: biochemical; conditions: DYRK1A kinase activity; 15 μM ATP, 4 μM Ser/Thr peptide 18, one hour at room temperature
Summary of the method: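 Recombinant DYRK1A at 0.25 μg/mL was incubated 1 h at room temperature with 15 μM ATP, 4 μM Ser/Thr 18 peptide and compound, in duplicate, 11-point series from 10 μM. Phosphorylation was read by Z-lyte FRET after 1 h protease development, as the coumarin/fluorescein emission ratio converted to % phosphorylation. IC50 by non-linear regression.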

[2] = system: Tau phosphorylation at Thr212 (pThr212); assay: Tau phosphorylation assay, phosphoTau (Thr212) AlphaLISA in HEK293T cells transfected with DYRK1A and MAPT; format: cell-based; conditions: HEK-293T; HEK293T cells transfected with human DYRK1A and MAPT; compound treatment 18-24 hours; read-out: pTau (Thr212) EC50
Description: Representative compounds were screened using the assay procedure for tau phosphorylation activity described below.
HEK293T cells (ATCC, CRL3216) cultured in DMEM (Thermo Fisher Scientific, 10566024) supplemented with 10% FBS (Corning, 35-011-CV) and Penicillin/Streptomycin (Thermo Fisher Scientific, 15140163) were seeded in a 75 cm^2 flask at 8.1×10^6 cells/flask. The HEK293T cells were then transiently transfected with 5 μg DYRK1A (NM_001396) human untagged clone (OriGene, SC314641) and 2.5 μg MAPT (441 a.a. Tau gene) (NM_005910) human untagged clone (OriGene, TP313312) using Lipofectamine 3000 (Thermo Fisher Scientific, L30000015) and incubated for 20-30 hours in a humidified incubator at 37° C. and 5% CO2. Post-incubation, HEK293T cells transfected with the DYRK1A and MAPT expression vectors were harvested and seeded in BioCoat poly-D lysine coated 96-well plates (Corning, 354461) at 3×10^4 cells/well.
The above synthesized compounds were screened using the cell assay procedure to assess decreased Tau phosphorylation at Thr212 (pThr212) described below.
Each compound was dissolved in DMSO (Sigma-Aldrich, D8418-100 mL) as a 10 mM stock. 10 mM stocks were serially diluted 1:3, 10-point dose-response curve and added to the cells with a final concentration ranging from 20 μM to 1.1 nM. Cell were treated with compounds in duplicate and incubated for 18-24 hours in a humidified incubator at 37° C. and 5% CO2.
Following the overnight compound treatment, cells were lysed with 1× Alpha Surefire Ultra Lysis Buffer (Perkin Elmer, ALSU-LB-100ML) complemented with 1× Halt Phosphatase Inhibitor Cocktail (Thermo Fisher Scientific, 78427) and 1× Halt Protease Inhibitor Cocktail (Thermo Fisher Scientific, 78438). Lysates were spun down at 12,000 g for 10 min to remove any cellular debris and 5 μL of lysates were dispensed into a 384-well Opti-Plate (Perkin Elmer, 6007290) for the measurement of Tau phosphorylation in the phosphoTau (Thr212) AlphaLISA assay. Donor antibody, biotinylated HT7Tau (Thermo Fisher Scientific, MN1000B), and acceptor antibody, pThr212Tau (Thermo Fisher Scientific, 44740G) were both added to the cell lysates at a final concentration of 3 nM and incubated for 1 hour at room temperature. Following incubation of the lysates with the donor and acceptor antibodies, anti-rabbit IgG(Fc specific) AlphaLISA acceptor beads (Perkin Elmer, AL104C) were added at a 10 ug/mL final concentration and incubated for 1 hour at room temperature protected from light. Lastly, AlphaScreen streptavidin donor beads (PerkinElmer, 6760002) were added at 40 ug/mL final concentration and incubated for 1 hour at room temperature protected from light. Plates were read at Ex=[…], and Em=615 nm on the EnVision Multilabel Plate Reader (Perkin Elmer) phospho-Tau (Thr212) AlphaLISA signal was used to plot, draw the curve fitting, and determine each compound's EC50 in Prism (GraphPad).

| EC50 [1] [nM] | EC50 [2] [nM] | Structure (SMILES) |
| --- | --- | --- |
| 5 | 31 | CN1CCC(Nc2cnc3ccc(-c4c[nH]c5ncccc45)cc3n2)CC1 [Compound 92, N-(1-Methylpiperidin-4-yl)-7-(1H-pyrrolo[2,3-b]pyridin-3-yl) quinoxalin-2-amine] |
| 8 | 396 | O=C(c1cnn2ccc(-c3c[nH]c4ncccc34)cc12)N1CCC(N2CCOCC2)CC1 [Compound 107, (5-(1H-Pyrrolo[2,3-b]pyridin-3-yl)pyrazolo[1,5-a]pyridin-3-yl)(4-morpholinopiperidin-1-yl)methanone] |
| – | 2 | c1cncc(-c2cnc3[nH]cc(-c4ccc5ncccc5c4)c3c2)c1 [Compound 1194, 6-(5-(Pyridin-3-yl)-1H-pyrrolo[2,3-b]pyridin-3-yl)quinoline] |
| 4 | – | CN1CCN(c2cccc(Nc3ccc4c(-c5ccn6ncc(-c7cnn(C)c7)c6c5)c[nH]c4n3)c2)CC1 [Compound 1930, 3-(3-(1-Methyl-1H-pyrazol-4-yl)pyrazolo[1,5-a]pyridin-5-yl)-N-(3-(4-methylpiperazin-1-yl)phenyl)-1H-pyrrolo[2,3-b]pyridin-6-amine] |
| 125 | – | CN1CCN(c2cccc(Nc3ccc4c(-c5ccc6c(c5)CCCO6)c[nH]c4n3)c2)CC1 [Compound 1945, 3-(Chroman-6-yl)-N-(3-(4-methylpiperazin-1-yl)phenyl)-1H-pyrrolo [2,3-]pyridin-6-amine] |
| 38 | – | CN1CCN(c2cccc(Nc3ccc4c(-c5ccc6ncccc6c5)c[nH]c4n3)c2)CC1 [Compound 1950, N-(3-(4-Methylpiperazin-1-yl)phenyl)-3-(quinolin-6-yl)-1H-pyrrolo [2,3-b]pyridin-6-amine] |
| 345 | – | c1cn2cc(-c3c[nH]c4nc(C5CCC5)ccc34)ncc2n1 [Compound 2042, 6-(6-Cyclobutyl-1H-pyrrolo[2,3-b]pyridin-3-yl)imidazo[1,2-a]pyrazine] |
| 36 | – | Cc1nc2c(F)cc(-c3c[nH]c4nc(C(C)C)ccc34)cc2n1C(C)C [Compound 2045, 4-Fluoro-1-isopropyl-6-(6-isopropyl-1H-pyrrolo[2,3-b]pyridin-3-yl)-2-methyl-1H-benzo[d]imidazole] |
| 2540 | – | CN1CCC(NC(=O)c2ccc3c(-c4ccc5ncnn5c4)c[nH]c3n2)CC1 [Compound 2048, 3-([1,2,4]Triazolo[1,5-a]pyridin-6-yl)-N-(1-methylpiperidin-4-yl)-1H-pyrrolo[2,3-b]pyridine-6-carboxamide] |
| 45 | – | CN1C2CCC1CN(C(=O)c1cnc3[nH]cc(-c4ccn5nccc5c4)c3c1)C2 [Compound 2049, (8-Methyl-3,8-diazabicyclo[3.2.1]octan-3-yl)(3-(pyrazolo[1,5-a]pyridin-5-yl)-1H-pyrrolo[2,3-b]pyridin-5-yl)methanone] |
| 37 | – | CN1CCN(c2ccc(CNc3ccnc4[nH]cc(-c5ccc6ncccc6c5)c34)cn2)CC1 [Compound 2051, N-((6-(4-Methylpiperazin-1-yl)pyridin-3-yl)methyl)-3-(quinolin-6-yl)-1H-pyrrolo[2,3-b]pyridin-4-amine] |
| 34 | – | c1cnc2ccc(-c3c[nH]c4nccc(NCc5ccc(-n6ccnc6)nc5)c34)cc2c1 [Compound 2052, N-((6-(1H-Imidazol-1-yl)pyridin-3-yl)methyl)-3-(quinolin-6-yl)-1H-pyrrolo[2,3-b]pyridin-4-amine] |
| 76 | – | c1cnc2ccc(-c3c[nH]c4nc(OCC5CC5)ccc34)cc2c1 [Compound 2053, 6-(6-(Cyclopropylmethoxy)-1H-pyrrolo[2,3-b]pyridin-3-yl)quinoline] |
| 37 | – | c1cnc2ccc(-c3c[nH]c4nc(-c5cncs5)ccc34)cc2c1 [Compound 2055, 5-(3-(quinolin-6-yl)-1H-pyrrolo[2,3-b]pyridin-6-yl)thiazole] |

Continued, molecule first:

| Structure (SMILES) | EC50 [1] [nM] | EC50 [2] [nM] |
| --- | --- | --- |
| Cc1nc2ncc(-c3c[nH]c4ncccc34)cc2n1C(C)C [Compound 25, 1-Isopropyl-2-methyl-6-(1H-pyrrolo[2,3-b]pyridin-3-yl)-1H-imidazo[4,5-b]pyridine] | 1 | 16 |
| Cn1cc(-c2cnn3ccc(-c4c[nH]c5ncccc45)cc23)cn1 [Compound 37, 3-(3-(1-Methyl-1H-pyrazol-4-yl)pyrazolo[1,5-a]pyridin-5-yl)-1H-pyrrolo[2,3-b]pyridine] | 1 | 6 |
| CN1CCN(C(=O)c2cnn3ccc(-c4c[nH]c5ncc(Cl)cc45)cc23)CC1 [Compound 215, (5-(5-Chloro-1H-pyrrolo[2,3-b]pyridin-3-yl)pyrazolo[1,5-a]pyridin-3-yl)(4-methylpiperazin-1-yl)methanone] | 12 | 258 |
| CN1CCN(c2ccc(NC(=O)c3cnc4[nH]cc(-c5ccc6nccnc6c5)c4c3)cn2)CC1 [Compound 817, N-(6-(4-Methylpiperazin-1-yl)pyridin-3-yl)-3-(quinoxalin-6-yl)-1H-pyrrolo[2,3-b]pyridine-5-carboxamide] | 8 | 210 |
| Cc1ccc2c(-c3ccc4ncccc4c3)c[nH]c2n1 [Compound 1488, 6-(6-Methyl-1H-pyrrolo[2,3-b]pyridin-3-yl)quinoline] | 2 | 39 |
| Cc1nc2c(F)cc(-c3c[nH]c4nc(-c5cnn(C)c5)ccc34)cc2n1C(C)C [Compound 1963, 4-Fluoro-1-isopropyl-2-methyl-6-(6-(1-methyl-1H-pyrazol-4-yl)-1H-pyrrolo[2,3-b]pyridin-3-yl)-1H-benzo[d]imidazole] | 45 | – |
| CN1CCC(NC(=O)c2cnn3ccc(-c4c[nH]c5nc(-c6cnn(C)c6)ccc45)cc23)CC1 [Compound 1976, 5-(6-(1-Methyl-1H-pyrazol-4-yl)-1H-pyrrolo[2,3-b]pyridin-3-yl)-N-(1-methylpiperidin-4-yl)pyrazolo[1,5-a]pyridine-3-carboxamide] | 10 | – |
| CN1C2CCC1CN(C(=O)c1cnc3[nH]cc(-c4cc5ccncc5s4)c3c1)C2 [Compound 2041, (8-Methyl-3,8-diazabicyclo[3.2.1]octan-3-yl)(3-(thieno[2,3-c]pyridin-2-yl)-1H-pyrrolo[2,3-b]pyridin-5-yl)methanone] | 115 | – |
| Cc1nc2c(F)cc(-c3c[nH]c4ncc(C(=O)O)cc34)cc2n1C(C)C [Compound 2043, 3-(4-Fluoro-1-isopropyl-2-methyl-1H-benzo[d]imidazol-6-yl)-1H-pyrrolo[2,3-b]pyridine-5-carboxylic acid] | 36 | – |
| Cc1nc2c(F)cc(-c3c[nH]c4ncc(C(=O)N5CC6CCC(C5)N6C)cc34)cc2n1C(C)C [Compound 2044, (3-(4-Fluoro-1-isopropyl-2-methyl-1H-benzo[d]imidazol-6-yl)-1H-pyrrolo[2,3-b]pyridin-5-yl)(8-methyl-3,8-diazabicyclo[3.2.1]octan-3-yl)methanone] | 3 | – |
| COc1cnc2[nH]cc(-c3ccn4ncc(C(=O)N5CCN(C)CC5)c4c3)c2c1 [Compound 2047, (5-(5-Methoxy-1H-pyrrolo[2,3-b]pyridin-3-yl)pyrazolo[1,5-a]pyridin-3-yl)(4-methylpiperazin-1-yl)methanone] | 32 | – |
| CN1CCN(C(=O)c2cnn3ccc(-c4c[nH]c5ncc(C(F)(F)F)cc45)cc23)CC1 [Compound 2050, (4-Methylpiperazin-1-yl)(5-(5-(trifluoromethyl)-1H-pyrrolo[2,3-b]pyridin-3-yl)pyrazolo[1,5-a]pyridin-3-yl)methanone] | 159 | – |
| CN(CC(F)F)C(=O)c1cnc2ccc(-c3c[nH]c4nc(C5CC5)ccc34)cn12 [Compound 2056, 6-(6-cyclopropyl-1H-pyrrolo[2,3-b]pyridin-3-yl)-N-(2,2-difluoroethyl)-N-methylimidazo[1,2-a]pyridine-3-carboxamide] | 5 | – |
